# Where a SMILES comes first, the peptide text is derived from it. Bridges are numbered along the chain shown (N, C = ends). [ ]: non-standard residue; d: D form. The star is where a group is joined. Val(Nα-amidino) = CC(C)[C@H](NC(=N)N)C(=O)*; dDab(iPr) = CC(C)NCC[C@@H](N)C(=O)O; Hyp = O=C(O)[C@@H]1C[C@@H](O)CN1; Cit = NC(=O)NCCC[C@H](N)C(=O)O; Pen = CC(C)(S)[C@H](N)C(=O)O; dDab = NCC[C@@H](N)C(=O)O; Orn = NCCC[C@H](N)C(=O)O; Dab = NCC[C@H](N)C(=O)O
# What was measured:
# Assay type in all cases: cell-based
# [1] = system: Escherichia coli MCR-1 Af 45; conditions: MCR-1 Af 45
# Summary of the method: (§1)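 The MIC is the lowest peptide concentration, in μg/mL, with no visible growth after 18-20 h incubation at 35 °C. Serial two-fold peptide dilutions in water with 0.002% P-80 final were added to bacteria in cation-adjusted MHII broth, about 5×10^5 CFU/mL, following modified CLSI microdilution.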
# [2] = system: Escherichia coli ATCC 25922; conditions: ATCC 25922
# Summary of the method: as §1
# [3] = system: Klebsiella pneumoniae SSI3010; conditions: SSI3010
# Summary of the method: as §1
# [4] = system: human red blood cells (hRBC); conditions: red cells of human, 1 h, 200 μg/mL
# Summary of the method: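 Percent hemolysis derived from OD540 of supernatants relative to full lysis by 2.5% Triton X-100 (PBS baseline). Washed fresh human erythrocytes (20% v/v) were exposed to 200 μg/mL peptide for 1 h at 37 °C with shaking.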
smiles,measurement,setting,value
"CC[C@H](C)[C@H](NC(=O)[C@@H]1C[C@@H](O)CN1C(=O)[C@@H](NC(=N)N)C(C)C)C(=O)N[C@@H]1C(=O)N[C@@H](Cc2ccc(O)cc2)C(=O)N[C@@H]([C@@H](C)O)C(=O)N[C@@H](CC(N)=O)C(=O)N[C@@H](CCCNC(=N)N)C(=O)N[C@@H](CCN)C(=O)N[C@@H]([C@@H](C)O)C(=O)N[C@H](CCNC(C)C)C(=O)N[C@@H](CO)C(=O)N[C@@H](CCN)C(=O)N[C@@H](CCN)C(=O)N[C@H](C(=O)N[C@@H](Cc2ccc(O)cc2)C(=O)O)CSSC1(C)C [Example 96, Gua-Val-Hyp-Ile-Pen-Tyr-Thr-Asn-Arg-Dab-Thr-^DDab(iPr)-Ser-Dab-Dab-Cys-Tyr] ({Val(Nα-amidino)}-[Hyp]I[Pen]YTNR[Dab]T[dDab(iPr)]S[Dab][Dab]CY-OH; disulfide 3-14)",Escherichia coli MCR-1 Af45 MIC,[1],0.125 µg/mL
same,Escherichia coli ATCC 25922 MIC,[2],0.125 µg/mL
same,Klebsiella pneumoniae SSI3010 MIC,[3],0.25 µg/mL
same,Hemolysis at 0.2 g/L,[4],<1%
"CC[C@H](C)[C@H](NC(=O)[C@@H]1C[C@@H](O)CN1C(=O)[C@@H](NC(=N)N)C(C)C)C(=O)N[C@@H]1C(=O)N[C@@H](Cc2ccc(O)cc2)C(=O)N[C@@H]([C@@H](C)O)C(=O)N[C@@H](CC(N)=O)C(=O)N[C@@H](CCCNC(=N)N)C(=O)N[C@@H](CCN)C(=O)N[C@@H]([C@@H](C)O)C(=O)N[C@H](CCN)C(=O)N[C@@H](CCCNC(N)=O)C(=O)N[C@@H](CCN)C(=O)N[C@@H](CCN)C(=O)N[C@H](C(=O)N[C@@H](Cc2ccc(O)cc2)C(=O)O)CSSC1(C)C [Example 97, Gua-Val-Hyp-Ile-Pen-Tyr-Thr-Asn-Arg-Dab-Thr-^DDab-Cit-Dab-Dab-Cys-Tyr] ({Val(Nα-amidino)}-[Hyp]I[Pen]YTNR[Dab]T[dDab][Cit][Dab][Dab]CY-OH; disulfide 3-14)",Escherichia coli MCR-1 Af45 MIC,[1],0.125 µg/mL
same,Escherichia coli ATCC 25922 MIC,[2],0.125 µg/mL
same,Klebsiella pneumoniae SSI3010 MIC,[3],0.25 µg/mL
same,Hemolysis at 0.2 g/L,[4],<1%
"CC[C@H](C)[C@H](NC(=O)[C@@H]1C[C@@H](O)CN1C(=O)[C@@H](NC(=N)N)C(C)C)C(=O)N[C@@H]1C(=O)N[C@@H](Cc2ccc(O)cc2)C(=O)N[C@@H]([C@@H](C)O)C(=O)N[C@@H](CC(N)=O)C(=O)N[C@@H](CCCNC(=N)N)C(=O)N[C@@H](CCN)C(=O)N[C@@H]([C@@H](C)O)C(=O)N[C@H](CCN)C(=O)N[C@@H](CCCCN)C(=O)N[C@@H](CCN)C(=O)N[C@@H](CCCNC(N)=O)C(=O)N[C@H](C(=O)N[C@@H](Cc2ccc(O)cc2)C(=O)O)CSSC1(C)C [Example 98, Gua-Val-Hyp-Ile-Pen-Tyr-Thr-Asn-Arg-Dab-Thr-^DDab-Lys-Dab-Cit-Cys-Tyr] ({Val(Nα-amidino)}-[Hyp]I[Pen]YTNR[Dab]T[dDab]K[Dab][Cit]CY-OH; disulfide 3-14)",Escherichia coli MCR-1 Af45 MIC,[1],0.125 µg/mL
same,Escherichia coli ATCC 25922 MIC,[2],0.25 µg/mL
same,Klebsiella pneumoniae SSI3010 MIC,[3],0.5 µg/mL
same,Hemolysis at 0.2 g/L,[4],<1%
"CC[C@H](C)[C@H](NC(=O)[C@@H]1C[C@@H](O)CN1C(=O)[C@@H](NC(=N)N)C(C)C)C(=O)N[C@@H]1C(=O)N[C@@H](Cc2ccc(O)cc2)C(=O)N[C@@H](CO)C(=O)N[C@@H](CC(N)=O)C(=O)N[C@@H](CCCNC(=N)N)C(=O)N[C@@H](CCN)C(=O)N[C@@H]([C@@H](C)O)C(=O)N[C@H](CCN)C(=O)N[C@@H](CO)C(=O)N[C@@H](CCN)C(=O)N[C@@H](CCN)C(=O)N[C@H](C(=O)N[C@@H](Cc2ccc(O)cc2)C(=O)O)CSSC1(C)C [Example 99, Gua-Val-Hyp-Ile-Pen-Tyr-Ser-Asn-Arg-Dab-Thr-^DDab-Ser-Dab-Dab-Cys-Tyr] ({Val(Nα-amidino)}-[Hyp]I[Pen]YSNR[Dab]T[dDab]S[Dab][Dab]CY-OH; disulfide 3-14)",Escherichia coli MCR-1 Af45 MIC,[1],0.125 µg/mL
same,Escherichia coli ATCC 25922 MIC,[2],0.25 µg/mL
same,Klebsiella pneumoniae SSI3010 MIC,[3],0.25 µg/mL
same,Hemolysis at 0.2 g/L,[4],<1%
"CC[C@H](C)[C@H](NC(=O)[C@@H]1C[C@@H](O)CN1C(=O)[C@@H](NC(=N)N)C(C)C)C(=O)N[C@@H]1C(=O)N[C@@H](Cc2ccc(O)cc2)C(=O)N[C@@H]([C@@H](C)O)C(=O)N[C@@H](CC(N)=O)C(=O)N[C@@H](CCCNC(=N)N)C(=O)N[C@@H](CCN)C(=O)N[C@@H]([C@@H](C)O)C(=O)N[C@H](CCN)C(=O)N[C@@H](CO)C(=O)N[C@@H](CCN)C(=O)N[C@@H](CCCN)C(=O)N[C@H](C(=O)N[C@@H](Cc2ccc(O)cc2)C(=O)O)CSSC1(C)C [Example 100, Gua-Val-Hyp-Ile-Pen-Tyr-Thr-Asn-Arg-Dab-Thr-^DDab-Ser-Dab-Orn-Cys-Tyr] ({Val(Nα-amidino)}-[Hyp]I[Pen]YTNR[Dab]T[dDab]S[Dab][Orn]CY-OH; disulfide 3-14)",Escherichia coli MCR-1 Af45 MIC,[1],0.25 µg/mL
same,Escherichia coli ATCC 25922 MIC,[2],0.25 µg/mL
same,Klebsiella pneumoniae SSI3010 MIC,[3],0.5 µg/mL
same,Hemolysis at 0.2 g/L,[4],<1%
"CC[C@H](C)[C@H](NC(=O)[C@@H]1C[C@@H](O)CN1C(=O)[C@@H](NC(=N)N)C(C)C)C(=O)N[C@@H]1C(=O)N[C@@H](Cc2ccc(O)cc2)C(=O)N[C@@H](CCN)C(=O)N[C@@H](CC(N)=O)C(=O)N[C@@H](CCCNC(=N)N)C(=O)N[C@@H](CCN)C(=O)N[C@@H]([C@@H](C)O)C(=O)N[C@H](CCN)C(=O)N[C@@H](CCCCN)C(=O)N[C@@H]([C@@H](C)O)C(=O)N[C@@H](CCN)C(=O)N[C@H](C(=O)N[C@@H](Cc2ccc(O)cc2)C(=O)O)CSSC1(C)C [Example 101, Gua-Val-Hyp-Ile-Pen-Tyr-Dab-Asn-Arg-Dab-Thr-^DDab-Lys-Thr-Dab-Cys-Tyr] ({Val(Nα-amidino)}-[Hyp]I[Pen]Y[Dab]NR[Dab]T[dDab]KT[Dab]CY-OH; disulfide 3-14)",Escherichia coli MCR-1 Af45 MIC,[1],0.125 µg/mL
same,Escherichia coli ATCC 25922 MIC,[2],0.125 µg/mL
same,Klebsiella pneumoniae SSI3010 MIC,[3],0.5 µg/mL
same,Hemolysis at 0.2 g/L,[4],<1%
"CC[C@H](C)[C@H](NC(=O)[C@@H]1C[C@@H](O)CN1C(=O)[C@@H](NC(=N)N)C(C)C)C(=O)N[C@@H]1C(=O)N[C@@H](Cc2ccc(O)cc2)C(=O)N[C@@H](CCN)C(=O)N[C@@H](CC(N)=O)C(=O)N[C@@H](CCCNC(=N)N)C(=O)N[C@@H](CCN)C(=O)N[C@@H]([C@@H](C)O)C(=O)N[C@H](CCN)C(=O)N[C@@H](CO)C(=O)N[C@@H]([C@@H](C)O)C(=O)N[C@@H](CCN)C(=O)N[C@H](C(=O)N[C@@H](Cc2ccc(O)cc2)C(=O)O)CSSC1(C)C [Example 102, Gua-Val-Hyp-Ile-Pen-Tyr-Dab-Asn-Arg-Dab-Thr-^DDab-Ser-T-Dab-Cys-Tyr] ({Val(Nα-amidino)}-[Hyp]I[Pen]Y[Dab]NR[Dab]T[dDab]ST[Dab]CY-OH; disulfide 3-14)",Escherichia coli MCR-1 Af45 MIC,[1],0.25 µg/mL
same,Escherichia coli ATCC 25922 MIC,[2],0.25 µg/mL
same,Klebsiella pneumoniae SSI3010 MIC,[3],0.5 µg/mL
same,Hemolysis at 0.2 g/L,[4],<1%
"CC[C@H](C)[C@H](NC(=O)[C@@H]1C[C@@H](O)CN1C(=O)[C@@H](NC(=N)N)C(C)C)C(=O)N[C@@H]1C(=O)N[C@@H](Cc2ccc(O)cc2)C(=O)N[C@@H]([C@@H](C)O)C(=O)N[C@@H](CC(N)=O)C(=O)N[C@@H](CCCNC(=N)N)C(=O)N[C@H](CCN)C(=O)N[C@@H]([C@@H](C)O)C(=O)N[C@H](CCN)C(=O)N[C@@H](CO)C(=O)N[C@@H](CCN)C(=O)N[C@@H](CCN)C(=O)N[C@H](C(=O)N[C@@H](Cc2ccc(O)cc2)C(=O)O)CSSC1(C)C [Example 103, Gua-Val-Hyp-Ile-Pen-Tyr-Thr-Asn-Arg-^DDab-Thr-^DDab-Ser-Dab-Dab-Cys-Tyr] ({Val(Nα-amidino)}-[Hyp]I[Pen]YTNR[dDab]T[dDab]S[Dab][Dab]CY-OH; disulfide 3-14)",Escherichia coli MCR-1 Af45 MIC,[1],0.125 µg/mL
same,Escherichia coli ATCC 25922 MIC,[2],0.125 µg/mL
same,Klebsiella pneumoniae SSI3010 MIC,[3],0.25 µg/mL
same,Hemolysis at 0.2 g/L,[4],<1%
"CC[C@H](C)[C@H](NC(=O)[C@@H]1C[C@@H](O)CN1C(=O)[C@@H](NC(=N)N)C(C)C)C(=O)N[C@@H]1C(=O)N[C@@H](Cc2ccc(O)cc2)C(=O)N[C@@H](CO)C(=O)N[C@@H](CC(N)=O)C(=O)N[C@@H](CCCNC(=N)N)C(=O)N[C@H](CCN)C(=O)N[C@@H]([C@@H](C)O)C(=O)N[C@H](CCN)C(=O)N[C@@H](CO)C(=O)N[C@@H](CCN)C(=O)N[C@@H](CCN)C(=O)N[C@H](C(=O)N[C@@H](Cc2ccc(O)cc2)C(=O)O)CSSC1(C)C [Example 104, Gua-Val-Hyp-Ile-Pen-Tyr-Ser-Asn-Arg-^DDab-Thr-^DDab-Ser-Dab-Dab-Cys-Tyr] ({Val(Nα-amidino)}-[Hyp]I[Pen]YSNR[dDab]T[dDab]S[Dab][Dab]CY-OH; disulfide 3-14)",Escherichia coli MCR-1 Af45 MIC,[1],0.25 µg/mL
same,Escherichia coli ATCC 25922 MIC,[2],0.25 µg/mL
same,Klebsiella pneumoniae SSI3010 MIC,[3],0.25 µg/mL
same,Hemolysis at 0.2 g/L,[4],<1%
"CC[C@H](C)[C@H](NC(=O)[C@@H]1C[C@@H](O)CN1C(=O)[C@@H](NC(=N)N)C(C)C)C(=O)N[C@@H]1C(=O)N[C@@H](Cc2ccc(O)cc2)C(=O)N[C@@H]([C@@H](C)O)C(=O)N[C@@H](CC(N)=O)C(=O)N[C@@H](CCCNC(=N)N)C(=O)N[C@@H](CCN)C(=O)N[C@@H]([C@@H](C)O)C(=O)N[C@H](CCN)C(=O)N[C@@H](CC(N)=O)C(=O)N[C@@H](CCN)C(=O)N[C@@H](CCN)C(=O)N[C@H](C(=O)N[C@@H](Cc2ccc(O)cc2)C(=O)O)CSSC1(C)C [Example 105, Gua-Val-Hyp-Ile-Pen-Tyr-Thr-Asn-Arg-Dab-Thr-^DDab-Asn-Dab-Dab-Cys-Tyr] ({Val(Nα-amidino)}-[Hyp]I[Pen]YTNR[Dab]T[dDab]N[Dab][Dab]CY-OH; disulfide 3-14)",Escherichia coli MCR-1 Af45 MIC,[1],0.125 µg/mL
same,Escherichia coli ATCC 25922 MIC,[2],0.125 µg/mL
same,Klebsiella pneumoniae SSI3010 MIC,[3],0.25 µg/mL
same,Hemolysis at 0.2 g/L,[4],<1%
